PMC7815716, “Mechanistic basis of breast cancer resistance protein inhibition by new indeno[1,2-b]indoles” (Scientific Reports, 2021)
“Also recorded” adds a separate entry of the source. Like-named read-outs stand apart in the source and are kept apart here.

How the values were obtained:
[1] = tested on: HEK293 WT and HEK293-ABCG2 cells; assay: Intrinsic cytotoxicity of compounds, MTT assay; format: cell-based, human; conditions: HEK293-ABCG2 vs HEK293 WT, 72 h, 0.1–100 µM
Protocol: (§1) Cell viability was evaluated with a 3-(4,5-dimethylthiazol-2-yl)-2,5-diphenyltetrazolium bromide (MTT) colorimetric assay. HEK293 WT and HEK293-ABCG2 cells were seeded into 96-well culture plates at a 1.5 × 10^4 cells/well density. After overnight incubation, the cells were treated with various concentrations of compounds (0–100 µM) for 72 h at 37 °C under 5% CO2. […] Sensitization experiments were also carried out on H460 and H460MX20 cells. For these experiments, H460 and H460MX20 cells were seeded into 96-well culture plates at 1.0 × 10^4 cells/well density. […] After the treatment, the culture medium was removed and 100 μL of a 0.5 mg.mL^−1 MTT solution was added. Cells were then incubated for 4 h at 37 °C under 5% CO2. The formazan crystals were dissolved with a solution of DMSO/ethanol (1:1) and the absorbance was measured at 570 nm using a Multiscan FC microplate reader (Thermo Scientific). The results were expressed as percentage of viable cells versus control cells (0.1% DMSO, v/v) taken as 100%.

[2] = tested on: HEK293-ABCG2 cells; assay: Sensitization of ABCG2-transfected cells to SN-38, MTT assay; format: cell-based, human; conditions: for Chemosensitization to SN-38: HEK293-ABCG2, 72 h co-treatment, IC50 value or 5 µM; for FR, fold reversal: vs HEK293 WT
Protocol: as §1

[3] = biological target: T1, ABCC1 (MRP1) (Homo sapiens, UniProt P33527); assay: ABCC1 (MRP1) calcein-AM transport inhibition in BHK21-ABCC1 cells; format: cell-based; conditions: 1 and 10 µM; for Inhibition of MRP1-mediated transport: calcein-AM
T1 construct: expressed in transfected cells; host or cells: BHK21
T1 sequence (P33527 whole entry): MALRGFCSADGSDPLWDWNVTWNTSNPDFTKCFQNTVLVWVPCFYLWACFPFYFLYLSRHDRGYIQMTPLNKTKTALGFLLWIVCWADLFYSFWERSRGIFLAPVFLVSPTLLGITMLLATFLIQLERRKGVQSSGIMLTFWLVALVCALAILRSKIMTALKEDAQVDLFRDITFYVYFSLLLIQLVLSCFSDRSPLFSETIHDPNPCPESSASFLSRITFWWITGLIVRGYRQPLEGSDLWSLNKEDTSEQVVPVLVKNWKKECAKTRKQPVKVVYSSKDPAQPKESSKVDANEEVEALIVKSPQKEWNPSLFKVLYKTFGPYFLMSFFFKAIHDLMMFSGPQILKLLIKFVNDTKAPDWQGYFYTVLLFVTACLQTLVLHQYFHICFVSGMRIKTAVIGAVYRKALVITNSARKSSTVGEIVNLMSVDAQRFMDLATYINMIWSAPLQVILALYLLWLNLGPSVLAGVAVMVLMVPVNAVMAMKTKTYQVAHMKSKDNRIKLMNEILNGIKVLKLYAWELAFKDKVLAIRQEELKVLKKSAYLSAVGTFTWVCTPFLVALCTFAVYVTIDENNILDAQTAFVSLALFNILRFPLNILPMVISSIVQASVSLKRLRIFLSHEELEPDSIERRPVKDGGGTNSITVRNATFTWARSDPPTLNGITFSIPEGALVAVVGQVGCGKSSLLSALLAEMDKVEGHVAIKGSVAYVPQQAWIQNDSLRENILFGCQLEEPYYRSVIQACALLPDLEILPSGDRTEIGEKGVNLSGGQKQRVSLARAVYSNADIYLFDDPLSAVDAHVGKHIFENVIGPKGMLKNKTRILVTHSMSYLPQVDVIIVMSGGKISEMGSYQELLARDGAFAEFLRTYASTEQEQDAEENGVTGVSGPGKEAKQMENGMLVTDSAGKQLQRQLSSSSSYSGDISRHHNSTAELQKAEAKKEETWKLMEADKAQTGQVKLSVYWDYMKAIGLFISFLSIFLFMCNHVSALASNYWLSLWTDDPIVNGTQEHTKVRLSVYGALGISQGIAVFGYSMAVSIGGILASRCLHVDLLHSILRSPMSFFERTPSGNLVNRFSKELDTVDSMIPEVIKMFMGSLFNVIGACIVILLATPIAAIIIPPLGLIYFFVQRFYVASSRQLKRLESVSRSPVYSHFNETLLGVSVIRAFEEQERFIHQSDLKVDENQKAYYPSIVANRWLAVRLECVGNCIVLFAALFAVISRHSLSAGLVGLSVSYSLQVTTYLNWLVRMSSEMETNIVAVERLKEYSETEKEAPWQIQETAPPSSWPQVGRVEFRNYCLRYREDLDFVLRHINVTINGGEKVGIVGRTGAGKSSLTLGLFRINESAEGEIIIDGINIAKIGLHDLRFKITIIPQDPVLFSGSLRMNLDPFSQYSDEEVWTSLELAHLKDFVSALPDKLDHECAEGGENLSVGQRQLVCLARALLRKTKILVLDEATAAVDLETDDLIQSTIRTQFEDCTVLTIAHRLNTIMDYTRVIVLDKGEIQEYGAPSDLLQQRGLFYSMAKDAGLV
Protocol: (§2) ABCG2 inhibition assays were carried out on HEK293 WT and HEK293-ABCG2 cells. Cells were seeded at the density of 1 × 10^5 cells/well in 24 well culture plates and incubated for 48 h at 37 °C under 5% CO2. Cells were treated with compounds and 10 μM of mitoxantrone for 30 min at 37 °C and 5% CO2. After incubation the cells were washed with PBS, trypsinized and resuspended in ice cold PBS. The intracellular drug fluorescence was monitored with a FACS Calibur cytometer (Becton Dickinson) using the FL4 channel, with at least 10,000 events collected. The maximal fluorescence (taken as 100%) was determined with the difference between the mean fluorescence of HEK-ABCG2 cells incubated with 0.5 μM Ko143 (ABCG2 reference inhibitor) or by using the HEK293 WT cell line as a control and cells without inhibitor (mitoxantrone alone). The percent of inhibition was determined as previously described. For bimodulation assays the cells were concomitantly treated with 10 μM of one or two combined inhibitors under similar conditions as described previously. For washing assays, cells were treated with 10 μM concentrations of compounds for 30 min. Then, the medium with the inhibitor was removed and the cells were washed with PBS and incubated only with culture medium for different periods of time (0.5 and 3 h). After incubation, cells were exposed to 5 µM mitoxantrone for 30 min, and then analyzed by flow cytometry. The percentage of transport inhibition was calculated by the following equation: %Inhibition=C-S/I-S×100 where “C” corresponds to the intracellular fluorescence of cells in the presence of the tested compounds and substrate (mitoxantrone to ABCG2, Rhodamine 123 to ABCB1 and calcein to ABCC1), “S” corresponds to the intracellular fluorescence of cells in the presence of substrate alone, and “I” corresponds to the intracellular fluorescence of cells in the presence of the substrate and reference inhibitor (Ko143 to ABCG2, GF120918 to ABCB1 and verapamil to ABCC1).
ABCB1 (P-gp) and ABCC1 (MRP1) inhibition assays were carried out on NIH3T3 WT and NIH3T3-ABCB1 or BHK21 WT and BHK21-ABCC1 cell lines. Cells were treated with 5 μM rhodamine 123 or 0.2 μM calcein-AM as substrates, and with or without GF120918 (0.5 μM) or verapamil (30 μM) as reference inhibitors, for ABCB1 and ABCC1, respectively. Compounds were assayed at 1 and 10 µM. The same procedure and calculation to determine the percentage of inhibition were used for ABCG2 inhibition assays. The intracellular fluorescence was monitored with a FACS Calibur cytometer (Becton Dickinson) using the FL1 channel.

[4] = biological target: T2, ABCG2 (Homo sapiens, UniProt Q9UNQ0); assay: Inhibition of ABCG2-mediated mitoxantrone efflux (flow cytometry); format: cell-based; design: expressed in transfected cells; host or cells: HEK293; conditions: for inhibition at 30 min: human, probe mitoxantrone (10 µM), from IC50 fitted curves, HEK293-ABCG2, mitoxantrone, 100% = Ko143 0.5 µM, read-out: IMAX (%) ± SD, maximal inhibition percentage; for Class of inhibitor by IMAX (complete or partial): threshold at 80% on IMAX values
T2 sequence (Q9UNQ0 1-655): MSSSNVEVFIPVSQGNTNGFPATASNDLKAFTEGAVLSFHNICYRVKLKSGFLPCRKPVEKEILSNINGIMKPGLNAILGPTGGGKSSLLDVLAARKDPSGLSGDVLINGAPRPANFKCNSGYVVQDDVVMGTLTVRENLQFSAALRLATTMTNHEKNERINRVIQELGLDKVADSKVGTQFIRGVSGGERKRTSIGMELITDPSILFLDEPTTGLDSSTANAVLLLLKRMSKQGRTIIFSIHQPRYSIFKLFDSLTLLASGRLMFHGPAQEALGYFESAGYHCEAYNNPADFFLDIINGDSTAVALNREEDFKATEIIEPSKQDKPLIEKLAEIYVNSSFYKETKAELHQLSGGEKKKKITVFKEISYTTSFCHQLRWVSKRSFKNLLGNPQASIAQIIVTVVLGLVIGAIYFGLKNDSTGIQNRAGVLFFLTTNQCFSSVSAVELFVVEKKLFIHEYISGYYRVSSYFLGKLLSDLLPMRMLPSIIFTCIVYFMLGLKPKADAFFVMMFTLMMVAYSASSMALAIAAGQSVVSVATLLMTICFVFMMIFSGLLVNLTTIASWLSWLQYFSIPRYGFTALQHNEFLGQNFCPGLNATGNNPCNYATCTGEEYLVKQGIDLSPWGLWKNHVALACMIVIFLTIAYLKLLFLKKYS
Protocol: as §2

[5] = HEK293-ABCG2, SN-38 + inhibitor at 5 µM
[6] = HEK293-ABCG2, SN-38 + inhibitor at its IC50 value

Row | SMILES | Intrinsic cytotoxicity in ABCG2-transfected versus control cells (cross-resistance) [1] | Chemosensitization to SN-38 [2] | FR, fold reversal [2, 5] | FR, fold reversal [2, 6] | Inhibition of MRP1-mediated transport [3] | melting point [°C] | IC50 ([4]; HEK293-ABCG2 cells, mitoxantrone 10 µM, 30 min, read-out: IC50 (µM) ± SD, inhibition of ABCG2-mediated mitoxantrone efflux) [µM] | inhibition at 30 min ([4]; HEK293-ABCG2 cells) [%] | Class of inhibitor by IMAX (complete or partial) [4] | Selectivity toward ABCG2 versus P-gp and MRP1 [3] | IC50 [4] [µM]
1 | COc1cc2c(cc1OC)-c1c(c3c(n1CCc1ccccc1)CC(C)CC3=O)C2=O (stereo not shown) [5e, 2,3-Dimethoxy-7-methyl-5-phenethyl-5,6,7,8-tetrahydroindeno[1,2-b]indole-9,10-dione] | no apparent cross-resistance | efficiently chemosensitize | 3.08 | 9.51 | partially inhibited | 235 | 0.15 ± 0.08 | 36.9 ± 1.16 | partial (partial (IMAX ≤ 80% of ABCG2 inhibition)) |  | 
2 | COc1ccccc1CCn1c2c(c3c(O)cc(C)cc31)C(=O)c1ccccc1-2 [6a, 9-Hydroxy-7-methyl-5-(2-methoxyphenethyl)-5H-indeno[1,2-b]indol-10(5H)-one] | no apparent cross-resistance | efficiently chemosensitize | 0.47 | 0.82 |  |  |  | 62.6 ± 2.3 | partial (partial (IMAX ≤ 80% of ABCG2 inhibition)) | specific ABCG2 inhibitor; also recorded: completely selective to ABCG2 | 0.21 ± 0.03
3 | COc1ccc2[nH]cc(CCn3c4c(c5c(O)cccc53)C(=O)c3ccccc3-4)c2c1 [6c, 9-Hydroxy-5-(2-(5-methoxy-1H-indol-3-yl)ethyl)indeno[1,2-b]indol-10(5H)-one] | mild collateral sensitivity (CS) effect |  | 0.37 | 1.13 | partially inhibited | 95 |  | 90.5 ± 8.07 |  |  | 0.48 ± 0.1
4 | COc1cccc(CCn2c3c(c4c(O)cccc42)C(=O)c2ccc(O)cc2-3)c1 [6d, 3,9-Dihydroxy-5-(3-methoxyphenethyl)indeno[1,2-b]indol-10(5H)-one] | mild collateral sensitivity (CS) effect |  | 0.64 | 12.48 | partially inhibited | 198 |  | 84.8 ± 2.51 |  |  | 0.19 ± 0.04
